According to patent publication US7601717B2, “Pterin analogs” (BioMarin Pharmaceutical Inc., priority 2008, dated 2009):

Key:
Assay type in all cases: in vitro ADME
Conditions in all cases: over a 60 minute period, compound remaining
[1] = Stability in rat plasma
Protocol: (§1) The stability of various compounds as disclosed herein was tested in human and rat and in simulated gastric fluid. Each compound was tested over an hour period for concentration of the compound remaining at each time point. The results are shown in FIGS. 3 (human plasma stability), 4 (rat plasma stability), and 5 (simulated gastric fluid stability) for the compounds of Example 2, 3, 4, and 20.

[2] = Stability in human plasma
Protocol: as §1

[3] = Stability in simulated gastric fluid
Protocol: as §1

- stability in rat plasma [1]: high level of stability
- stability in human plasma [2]: high level of stability
- stability in simulated gastric fluid [3]: high level of stability
SMILES: CCCC(=O)O[C@@H]([C@H](C)OC(=O)CCC)[C@H]1CNc2nc(N)[nH]c(=O)c2N1C(=O)CCC [Example 4, Butyric acid 1-(2-amino-5-butyryl-4-oxo-3,4,5,6,7,8-hexahydro-pteridin-6-yl)-2-butyryloxy-propyl ester]
